MIC data for 28 compounds are collected here from patent publication US3957811A, “Process for 3-(1-[arylmethyl]tetrazol-5-yl)penams” (Pfizer Inc., priority 1974, dated 1976).

Values after ≈ are worked out from the molar mass of the structure shown. A value given as a limit tells only on which side of the number the result lay.

The first assay relates to Streptococcus pyogenes. Put plainly: In vitro MIC, conventional two-fold serial dilution technique in Brain-Heart Infusion broth, vs. Strep. pyogenes. In kind it is cell-based. To be noted: Streptococcus pyogenes, read-out: MIC vs. Strep. pyogenes. As for the experimental part: The antibacterial penam compounds, prepared from the products of the instant process invention, show activity against a wide variety of gram-positive and gram-negative bacteria. […] The broth is inoculated with the bacterial culture, and with the test antibiotic, and then it is incubated overnight. On the next day, the test is read visually. The minimum inhibitory concentration (MIC) is the lowest concentration of antibiotic which prevents turbidity, i.e., which prevents growth of the microorganism. In vitro activities of several of the penam compounds of the invention are presented later in this specification.
In vitro antibacterial activities for a number of compounds prepared by the procedure of Example 8 are presented below.
In Table II, the minimum inhibitory concentrations (MIC's) of compounds wherein R is hydrogen, against a strain of Streptococcus pyogenes are reported.
Turning to `CC1(C)S[C@@H]2[C@H](NC(=O)C(N)c3cc(O)ccc3Br)C(=O)N2[C@H]1c1nnn[nH]1` (mixture of isomers), the MIC is under 0.1 µg/mL. The same measure, in the same setting: in the case of `CC1(C)S[C@@H]2[C@H](NC(=O)CSc3ccncc3)C(=O)N2[C@H]1c1nnn[nH]1` [2-(4-pyridylthio)acetyl] it was under 0.1 µg/mL; in that of `CC1(C)S[C@@H]2[C@H](NC(=O)[C@H](N)c3ccc(O)cc3)C(=O)N2[C@H]1c1nnn[nH]1` [D-2-amino-2-(p-hydroxyphenyl)acetyl, 6-(D-2-amino-2-[p-hydroxyphenyl]acetamido)-2,2-dimethyl-3-(5-tetrazolyl)penam], under 0.1 µg/mL. The same measure, in the same setting: in the case of `CC1(C)S[C@@H]2[C@H](NC(=O)Oc3ccccc3)C(=O)N2[C@H]1c1nnn[nH]1` [phenoxycarbonyl] it was under 0.1 µg/mL.

The assay is the same for the next values; noted with them: compounds wherein R is hydrogen; a strain of Streptococcus pyogenes; Brain-Heart Infusion broth, overnight; read-out: MIC vs. Strep. pyogenes.
Turning to `CC1(C)S[C@@H]2[C@H](NC(=O)[C@H](N)c3ccc(O)c(Cl)c3)C(=O)N2[C@H]1c1nnn[nH]1`, the minimal inhibitory concentration (MIC) stood at 0.1 µg/mL (≈ 0.236 µM). Same read-out and setting: in the case of `CC1(C)S[C@@H]2[C@H](NC(=O)C(N)c3ccc(O)c(O)c3)C(=O)N2[C@H]1c1nnn[nH]1` (mixture of isomers) [DL-2-amino-2-(3,4-dihydroxyphenyl)acetyl] it was under 0.1 µg/mL. Still for that read-out and setting: then `CC1(C)S[C@@H]2[C@H](NC(=O)C(N)c3ccc(Cl)cc3)C(=O)N2[C@H]1c1nnn[nH]1` (mixture of isomers) [DL-2-amino-2-(p-chlorophenyl)acetyl], with under 0.1 µg/mL; and `CC1(C)S[C@@H]2[C@H](NC(=O)C3(N)CCCCC3)C(=O)N2[C@H]1c1nnn[nH]1` [1-aminocyclohexylcarbonyl], with 25 µg/mL (≈ 68.4 µM). Consider `COc1cccc(OC)c1C(=O)N[C@@H]1C(=O)N2[C@@H]1SC(C)(C)[C@@H]2c1nnn[nH]1` [2,6-dimethoxybenzoyl], for which the MIC is under 0.2 µg/mL.

Take `CC1(C)S[C@@H]2[C@H](NC(=O)Cn3cnnn3)C(=O)N2[C@H]1c1nnn[nH]1` [2-(1-tetrazolyl)acetyl]: the MIC was under 0.39 µg/mL.

In the case of `CCN=C(NCC)SCC(=O)N[C@@H]1C(=O)N2[C@@H]1SC(C)(C)[C@@H]2c1nnn[nH]1` [2-(N,N'-diethylamidinothio)acetyl], the MIC was under 0.1 µg/mL. Same read-out and setting: in the case of `CC1(C)S[C@@H]2[C@H](NC(=O)C(N=[N+]=[N-])c3ccccc3)C(=O)N2[C@H]1c1nnn[nH]1` (stereo partly shown) [2-azido-2-phenylacetyl] it was under 0.1 µg/mL; in that of `CC1(C)S[C@@H]2[C@H](NC(=O)CBr)C(=O)N2[C@H]1c1nnn[nH]1` [2-bromoacetyl], under 0.1 µg/mL; in that of `CC1(C)S[C@@H]2[C@H](NC(=O)CC#N)C(=O)N2[C@H]1c1nnn[nH]1` [2-cyanoacetyl], 0.1 µg/mL (≈ 0.325 µM). The same measure, in the same setting: then `CC1(C)S[C@@H]2[C@H](NC(=O)COc3ccccc3)C(=O)N2[C@H]1c1nnn[nH]1` [2-phenoxyacetyl], with under 0.1 µg/mL. The same measure, in the same setting: then `CC1(C)S[C@@H]2[C@H](NC(=O)Cc3ccccc3)C(=O)N2[C@H]1c1nnn[nH]1` [2-phenylacetyl, 6-(2-Phenylacetamido)-2,2-dimethyl-3-(5-tetrazolyl)penam], with under 0.1 µg/mL.

As to `CC1(C)S[C@@H]2[C@H](NC(=O)C=CC(N)=O)C(=O)N2[C@H]1c1nnn[nH]1` [3-(carbamoyl)acryloyl], the minimal inhibitory concentration (MIC) is under 0.1 µg/mL. The same measure, in the same setting: in the case of `CC1(C)S[C@@H]2[C@H](NC(=O)[C@H](N)c3cccs3)C(=O)N2[C@H]1c1nnn[nH]1` [D-2-amino-2-(2-thienyl)acetyl] it was 0.1 µg/mL (≈ 0.264 µM); in that of `CC1(C)S[C@@H]2[C@H](NC(=O)[C@H](N)c3cccc(F)c3)C(=O)N2[C@H]1c1nnn[nH]1` [D-2-amino-2-(m-fluorophenyl)acetyl], under 0.1 µg/mL; in that of `CC1(C)S[C@@H]2[C@H](NC(=O)[C@H](N)c3cccc(O)c3)C(=O)N2[C@H]1c1nnn[nH]1` [D-2-amino-2-(m-hydroxyphenyl)acetyl], under 0.1 µg/mL. The same measure, in the same setting: in the case of `CC1(C)S[C@@H]2[C@H](NC(=O)[C@H](N)c3ccccc3)C(=O)N2[C@H]1c1nnn[nH]1` [D-2-amino-2-phenylacetyl] it was under 0.1 µg/mL; in that of `CC(C)[C@@H](N)C(=O)N[C@@H]1C(=O)N2[C@@H]1SC(C)(C)[C@@H]2c1nnn[nH]1` [D-2-amino-3-methylbutyryl], 0.2 µg/mL (≈ 0.589 µM); in that of `CC1(C)S[C@@H]2[C@H](NC(=O)[C@H](N)Cc3ccccc3)C(=O)N2[C@H]1c1nnn[nH]1` [D-2-amino-3-phenylpropionyl], 0.39 µg/mL (≈ 1.01 µM). Same read-out and setting: then `CC1(C)S[C@@H]2[C@H](NC(=O)[C@@H](N)c3ccc(O)cc3)C(=O)N2[C@H]1c1nnn[nH]1` [L-2-amino-2-(p-hydroxyphenyl)acetyl], with under 0.1 µg/mL; and `CC(=O)N[C@@H]1C(=O)N2[C@@H]1SC(C)(C)[C@@H]2c1nnn[nH]1` [acetyl], with under 0.1 µg/mL. In the case of `CC1(C)S[C@@H]2[C@H](NC(=O)OCc3ccccc3)C(=O)N2[C@H]1c1nnn[nH]1` [benzyloxycarbonyl], the MIC was under 0.1 µg/mL. The same measure, in the same setting: then `CCOC(=O)N[C@@H]1C(=O)N2[C@@H]1SC(C)(C)[C@@H]2c1nnn[nH]1` [ethoxycarbonyl], with under 0.1 µg/mL; and `CC1(C)S[C@@H]2[C@H](N)C(=O)N2[C@H]1c1nnn[nH]1` [hydrogen, 6-Amino-2,2-dimethyl-3-(5-tetrazolyl)penam], with under 0.1 µg/mL.

What is called MIC is the lowest concentration found to suppress growth.
